Test results from ChEMBL document CHEMBL1201862, “PubChem BioAssay data set” (2004).
The source made the active and inactive calls.

Columns and labels:
[1] = target: T1, Aspartyl aminopeptidase (Plasmodium falciparum 3D7, UniProt Q8I2J3)
T1 sequence (Q8I2J3 whole entry): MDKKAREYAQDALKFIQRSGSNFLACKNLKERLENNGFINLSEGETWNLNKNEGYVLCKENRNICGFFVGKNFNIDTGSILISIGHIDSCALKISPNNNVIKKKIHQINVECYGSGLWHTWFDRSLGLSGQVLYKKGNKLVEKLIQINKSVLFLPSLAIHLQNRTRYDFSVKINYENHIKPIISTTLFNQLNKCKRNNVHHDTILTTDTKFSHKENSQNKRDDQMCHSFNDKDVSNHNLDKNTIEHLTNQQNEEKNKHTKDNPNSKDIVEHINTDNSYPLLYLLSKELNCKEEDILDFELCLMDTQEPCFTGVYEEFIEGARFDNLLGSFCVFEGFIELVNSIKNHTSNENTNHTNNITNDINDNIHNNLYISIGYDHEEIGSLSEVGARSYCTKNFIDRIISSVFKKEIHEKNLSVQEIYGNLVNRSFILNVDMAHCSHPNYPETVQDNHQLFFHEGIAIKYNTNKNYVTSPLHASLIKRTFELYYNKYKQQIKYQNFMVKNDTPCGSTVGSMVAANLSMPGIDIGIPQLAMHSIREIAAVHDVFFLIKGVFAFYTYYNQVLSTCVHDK

[2] = target: Procathepsin L (Homo sapiens, UniProt P07711)
[3] = target: T2, Microphthalmia-associated transcription factor (Homo sapiens, UniProt O75030); test: TRPM1 promoter luciferase signal decrease, dose response, MITF inhibitor project, cell-based, SK-MEL-5, cherry-picked, set 3 (AID 493073); format: functional
T2 sequence (O75030 whole entry): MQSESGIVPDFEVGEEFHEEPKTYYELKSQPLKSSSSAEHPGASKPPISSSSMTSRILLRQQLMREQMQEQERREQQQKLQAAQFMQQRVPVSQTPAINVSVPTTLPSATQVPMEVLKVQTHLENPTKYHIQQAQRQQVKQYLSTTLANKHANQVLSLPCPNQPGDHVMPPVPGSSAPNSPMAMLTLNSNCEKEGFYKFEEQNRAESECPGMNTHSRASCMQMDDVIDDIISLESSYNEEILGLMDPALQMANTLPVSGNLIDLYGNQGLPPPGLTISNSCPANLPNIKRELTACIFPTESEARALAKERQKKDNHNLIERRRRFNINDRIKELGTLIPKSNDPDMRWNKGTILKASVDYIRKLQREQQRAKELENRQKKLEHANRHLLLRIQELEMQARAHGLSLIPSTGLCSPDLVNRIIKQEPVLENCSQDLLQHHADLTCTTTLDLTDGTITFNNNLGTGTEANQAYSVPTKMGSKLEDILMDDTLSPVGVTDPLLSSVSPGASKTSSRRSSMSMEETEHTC

[4] = target: T3, Replicative DNA helicase DnaB (Mycobacterium tuberculosis, UniProt P9WMR3); test: DnaB intein splicing inhibitors, dose response, biochemical, cell-free fluorescence (AID 449749); format: functional
T3 sequence (P9WMR3 whole entry): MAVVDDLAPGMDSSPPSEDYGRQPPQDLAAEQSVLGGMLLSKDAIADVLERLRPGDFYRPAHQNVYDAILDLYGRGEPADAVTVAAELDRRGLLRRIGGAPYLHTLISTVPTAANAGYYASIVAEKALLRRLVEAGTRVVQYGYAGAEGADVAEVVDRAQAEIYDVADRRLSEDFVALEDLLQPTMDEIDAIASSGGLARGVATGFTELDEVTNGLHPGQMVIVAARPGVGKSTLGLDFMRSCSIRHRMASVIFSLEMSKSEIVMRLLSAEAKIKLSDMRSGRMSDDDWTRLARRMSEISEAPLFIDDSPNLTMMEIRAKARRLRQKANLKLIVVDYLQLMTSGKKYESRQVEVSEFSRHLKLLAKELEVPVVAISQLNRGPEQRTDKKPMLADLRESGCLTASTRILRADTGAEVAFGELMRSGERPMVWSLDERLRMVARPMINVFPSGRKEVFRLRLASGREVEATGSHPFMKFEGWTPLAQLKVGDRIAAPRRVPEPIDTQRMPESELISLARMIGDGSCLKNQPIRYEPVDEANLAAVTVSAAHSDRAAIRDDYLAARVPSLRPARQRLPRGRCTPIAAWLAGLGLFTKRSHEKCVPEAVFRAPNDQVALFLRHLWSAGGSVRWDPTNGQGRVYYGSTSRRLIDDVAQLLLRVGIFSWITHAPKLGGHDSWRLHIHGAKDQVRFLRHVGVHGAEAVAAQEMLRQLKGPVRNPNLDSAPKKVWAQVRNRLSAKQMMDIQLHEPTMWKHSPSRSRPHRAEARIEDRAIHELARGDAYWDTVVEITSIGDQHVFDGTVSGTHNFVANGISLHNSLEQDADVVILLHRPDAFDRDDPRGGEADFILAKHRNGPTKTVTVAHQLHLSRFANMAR

[5] = target: T4, Protein RecA (Mycobacterium tuberculosis, UniProt P9WHJ3); test: Fluorescence Cell-Free Homogeneous Dose Retest to Identify Inhibitors of RecA-Intein Splicing Activity. [Related pubchem assays (depositor defined):AID2097, AID2223, AID489010, AID492950]; format: functional
T4 sequence (P9WHJ3 whole entry): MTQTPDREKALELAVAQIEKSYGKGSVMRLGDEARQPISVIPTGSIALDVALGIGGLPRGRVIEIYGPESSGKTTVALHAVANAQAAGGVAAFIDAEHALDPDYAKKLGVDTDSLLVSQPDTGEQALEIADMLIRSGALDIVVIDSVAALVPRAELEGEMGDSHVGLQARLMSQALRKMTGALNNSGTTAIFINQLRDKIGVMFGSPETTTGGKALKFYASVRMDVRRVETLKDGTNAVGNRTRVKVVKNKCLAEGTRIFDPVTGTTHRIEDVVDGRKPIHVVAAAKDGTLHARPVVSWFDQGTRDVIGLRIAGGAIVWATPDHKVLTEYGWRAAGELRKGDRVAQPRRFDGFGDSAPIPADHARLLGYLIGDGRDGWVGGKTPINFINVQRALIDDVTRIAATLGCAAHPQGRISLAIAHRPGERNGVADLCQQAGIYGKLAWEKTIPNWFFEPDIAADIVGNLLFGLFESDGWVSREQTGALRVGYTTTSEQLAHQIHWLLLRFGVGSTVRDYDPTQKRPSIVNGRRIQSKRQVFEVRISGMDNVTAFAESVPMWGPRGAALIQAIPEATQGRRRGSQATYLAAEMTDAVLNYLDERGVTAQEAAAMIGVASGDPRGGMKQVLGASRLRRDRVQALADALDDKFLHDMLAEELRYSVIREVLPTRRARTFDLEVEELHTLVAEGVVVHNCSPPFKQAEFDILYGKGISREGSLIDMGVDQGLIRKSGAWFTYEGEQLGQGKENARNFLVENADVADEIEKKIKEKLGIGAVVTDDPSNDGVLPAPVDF

[6] = A cytotoxicity screen of small molecule inhibitors of the PhoP region in Salmonella typhi identified in the primary screen. [Related pubchem assays: 1850, 1864, 1985 ]; format: functional
[7] = tested on: HeLa; test: HeLa cell cytotoxicity, dose response, cytotoxicity control, 24 h, cherry-picked samples (AID 504726); format: functional, cell-based; conditions: Homo sapiens;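 also: potency for cytotoxicity as loss of luminescence signal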
[8] = target: Photoreceptor-specific nuclear receptor (Homo sapiens, UniProt Q9Y5X4); format: functional;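 also: potency for compounds that break the NR2E3 corepressor complex and count as activators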
[9] = target: Peroxisome proliferator-activated receptor gamma/Nuclear receptor corepressor 2 (Homo sapiens, UniProt P37231+Q9Y618); format: functional
[10] = target: G-protein coupled receptor 55 (Homo sapiens, UniProt Q9Y2T6); test: GPR55 agonists via beta-arrestin recruitment, primary screen, imaging, U2OS cells, beta-arrestin-GFP redistribution (AID 1961); format: functional
[11] = target: Phosphoethanolamine/phosphocholine phosphatase (Homo sapiens, UniProt Q8TCT1); test: SAR assay for compounds that inhibit PHOSPHO1. [Related pubchem assays (depositor defined):AID1545, AID1565, AID1574]
[12] = target: DNA dC->dU-editing enzyme APOBEC-3G (Homo sapiens, UniProt Q9HC16); test: Dose Response confirmation of small molecule APOBEC3G DNA Deaminase Inhibitors via a fluorescence-based single-stranded DNA deaminase assay. [Related pubchem assays (depositor defined):AID493012, AID493028]; format: functional
[13] = target: T5, Alkaline phosphatase, tissue-nonspecific isozyme (Homo sapiens, UniProt P05186); test: human TNAP enzyme inhibitors, SAR follow-up, biochemical, luminescent, dose response (AID 1056)
T5 sequence (P05186 whole entry): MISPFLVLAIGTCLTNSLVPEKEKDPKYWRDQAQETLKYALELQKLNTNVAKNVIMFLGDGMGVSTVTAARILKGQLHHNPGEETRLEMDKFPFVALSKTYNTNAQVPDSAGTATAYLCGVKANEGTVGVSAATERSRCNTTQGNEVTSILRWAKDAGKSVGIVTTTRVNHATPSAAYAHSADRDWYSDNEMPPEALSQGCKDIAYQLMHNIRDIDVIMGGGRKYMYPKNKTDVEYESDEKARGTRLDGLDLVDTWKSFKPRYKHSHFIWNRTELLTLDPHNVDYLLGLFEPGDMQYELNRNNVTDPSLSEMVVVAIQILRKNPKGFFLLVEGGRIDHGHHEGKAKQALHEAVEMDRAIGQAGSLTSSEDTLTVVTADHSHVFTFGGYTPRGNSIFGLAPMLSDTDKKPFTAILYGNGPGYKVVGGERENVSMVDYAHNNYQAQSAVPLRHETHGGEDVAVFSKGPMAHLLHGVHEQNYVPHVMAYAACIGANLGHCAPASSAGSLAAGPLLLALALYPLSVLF

[14] = Fluorescence-based cell-based high throughput dose response assay for inhibitors of the interaction of nucleotide-binding oligomerization domain containing 2 (NOD2) and the receptor-interacting serine-threonine kinase 2 (RIPK2).; format: functional; conditions: Homo sapiens
[15] = target: Beta Lactamase (Pseudomonas aeruginosa, UniProt Q932Y6); test: beta-lactamase reporter inhibitor potency, dose response, artefact control for NOD2-RIPK2 interaction inhibitor project, BLA reporter cells, FRET fluorescence (AID 651552); format: functional, cell-based
[16] = HeLa cell cytotoxicity, dose response, cytotoxicity control for MgcRacGAP inhibitor project (AID 624300); format: functional
[17] = target: T6, Rac GTPase-activating protein 1 (Homo sapiens, UniProt Q9H0H5); test: MgcRacGAP GTPase-activating activity inhibitors, confirmation, biochemical, ADP Hunter fluorescence, primary and confirmatory (AID 624330); format: functional
T6 sequence (Q9H0H5 whole entry): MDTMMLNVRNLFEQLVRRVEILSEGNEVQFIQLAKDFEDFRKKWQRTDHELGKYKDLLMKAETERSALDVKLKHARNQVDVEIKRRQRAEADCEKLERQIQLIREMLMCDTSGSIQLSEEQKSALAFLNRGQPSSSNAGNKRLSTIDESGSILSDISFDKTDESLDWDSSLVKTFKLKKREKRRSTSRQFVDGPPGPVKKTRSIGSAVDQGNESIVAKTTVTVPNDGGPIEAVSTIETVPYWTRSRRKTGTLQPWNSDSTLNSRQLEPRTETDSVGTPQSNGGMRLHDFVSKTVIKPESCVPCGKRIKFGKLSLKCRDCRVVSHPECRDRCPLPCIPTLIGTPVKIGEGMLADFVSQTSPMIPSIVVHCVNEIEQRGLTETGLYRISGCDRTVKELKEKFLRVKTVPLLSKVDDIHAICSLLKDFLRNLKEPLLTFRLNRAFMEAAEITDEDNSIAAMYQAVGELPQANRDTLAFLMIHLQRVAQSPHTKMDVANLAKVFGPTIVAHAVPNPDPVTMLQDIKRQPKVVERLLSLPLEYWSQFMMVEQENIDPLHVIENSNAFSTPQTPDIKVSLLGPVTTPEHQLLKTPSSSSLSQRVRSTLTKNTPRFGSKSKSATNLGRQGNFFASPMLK

[18] = LGR2 antagonists, dose response, cell-based, HEK293, CRE-luciferase reporter, cherry pick, set 2 (AID 743343); format: functional;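 also: transfected cells were stimulated with diluted bursicon conditioned medium after compound addition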
[19] = MC4R antagonists, dose response, counter-screen for LGR2 antagonist project, cell-based, plate reader, cherry pick (AID 743444); format: functional;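 also: transfected HEK 293 cells stimulated with alpha-MSH peptide; potency of inhibitors of the alpha-MSH evoked signal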
[20] = target: Voltage-dependent T-type calcium channel subunit alpha-1H (Homo sapiens, UniProt O95180); format: functional;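 also: channel activity triggered by adding a high calcium stimulation buffer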
[21] = target: T7, Ubiquitin-conjugating enzyme E2 N (Homo sapiens, UniProt P61088); format: functional;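 also: Dose-response confirmation in a TR-FRET assay detecting UBC13-driven polyubiquitin chain formation, inhibition measured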
T7 sequence (P61088 whole entry): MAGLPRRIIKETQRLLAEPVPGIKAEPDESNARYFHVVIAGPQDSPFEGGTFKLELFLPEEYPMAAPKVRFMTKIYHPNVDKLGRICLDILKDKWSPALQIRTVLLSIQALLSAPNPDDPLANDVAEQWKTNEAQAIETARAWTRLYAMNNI

Chain of Voltage-dependent T-type calcium channel subunit alpha-1H (O95180 whole entry): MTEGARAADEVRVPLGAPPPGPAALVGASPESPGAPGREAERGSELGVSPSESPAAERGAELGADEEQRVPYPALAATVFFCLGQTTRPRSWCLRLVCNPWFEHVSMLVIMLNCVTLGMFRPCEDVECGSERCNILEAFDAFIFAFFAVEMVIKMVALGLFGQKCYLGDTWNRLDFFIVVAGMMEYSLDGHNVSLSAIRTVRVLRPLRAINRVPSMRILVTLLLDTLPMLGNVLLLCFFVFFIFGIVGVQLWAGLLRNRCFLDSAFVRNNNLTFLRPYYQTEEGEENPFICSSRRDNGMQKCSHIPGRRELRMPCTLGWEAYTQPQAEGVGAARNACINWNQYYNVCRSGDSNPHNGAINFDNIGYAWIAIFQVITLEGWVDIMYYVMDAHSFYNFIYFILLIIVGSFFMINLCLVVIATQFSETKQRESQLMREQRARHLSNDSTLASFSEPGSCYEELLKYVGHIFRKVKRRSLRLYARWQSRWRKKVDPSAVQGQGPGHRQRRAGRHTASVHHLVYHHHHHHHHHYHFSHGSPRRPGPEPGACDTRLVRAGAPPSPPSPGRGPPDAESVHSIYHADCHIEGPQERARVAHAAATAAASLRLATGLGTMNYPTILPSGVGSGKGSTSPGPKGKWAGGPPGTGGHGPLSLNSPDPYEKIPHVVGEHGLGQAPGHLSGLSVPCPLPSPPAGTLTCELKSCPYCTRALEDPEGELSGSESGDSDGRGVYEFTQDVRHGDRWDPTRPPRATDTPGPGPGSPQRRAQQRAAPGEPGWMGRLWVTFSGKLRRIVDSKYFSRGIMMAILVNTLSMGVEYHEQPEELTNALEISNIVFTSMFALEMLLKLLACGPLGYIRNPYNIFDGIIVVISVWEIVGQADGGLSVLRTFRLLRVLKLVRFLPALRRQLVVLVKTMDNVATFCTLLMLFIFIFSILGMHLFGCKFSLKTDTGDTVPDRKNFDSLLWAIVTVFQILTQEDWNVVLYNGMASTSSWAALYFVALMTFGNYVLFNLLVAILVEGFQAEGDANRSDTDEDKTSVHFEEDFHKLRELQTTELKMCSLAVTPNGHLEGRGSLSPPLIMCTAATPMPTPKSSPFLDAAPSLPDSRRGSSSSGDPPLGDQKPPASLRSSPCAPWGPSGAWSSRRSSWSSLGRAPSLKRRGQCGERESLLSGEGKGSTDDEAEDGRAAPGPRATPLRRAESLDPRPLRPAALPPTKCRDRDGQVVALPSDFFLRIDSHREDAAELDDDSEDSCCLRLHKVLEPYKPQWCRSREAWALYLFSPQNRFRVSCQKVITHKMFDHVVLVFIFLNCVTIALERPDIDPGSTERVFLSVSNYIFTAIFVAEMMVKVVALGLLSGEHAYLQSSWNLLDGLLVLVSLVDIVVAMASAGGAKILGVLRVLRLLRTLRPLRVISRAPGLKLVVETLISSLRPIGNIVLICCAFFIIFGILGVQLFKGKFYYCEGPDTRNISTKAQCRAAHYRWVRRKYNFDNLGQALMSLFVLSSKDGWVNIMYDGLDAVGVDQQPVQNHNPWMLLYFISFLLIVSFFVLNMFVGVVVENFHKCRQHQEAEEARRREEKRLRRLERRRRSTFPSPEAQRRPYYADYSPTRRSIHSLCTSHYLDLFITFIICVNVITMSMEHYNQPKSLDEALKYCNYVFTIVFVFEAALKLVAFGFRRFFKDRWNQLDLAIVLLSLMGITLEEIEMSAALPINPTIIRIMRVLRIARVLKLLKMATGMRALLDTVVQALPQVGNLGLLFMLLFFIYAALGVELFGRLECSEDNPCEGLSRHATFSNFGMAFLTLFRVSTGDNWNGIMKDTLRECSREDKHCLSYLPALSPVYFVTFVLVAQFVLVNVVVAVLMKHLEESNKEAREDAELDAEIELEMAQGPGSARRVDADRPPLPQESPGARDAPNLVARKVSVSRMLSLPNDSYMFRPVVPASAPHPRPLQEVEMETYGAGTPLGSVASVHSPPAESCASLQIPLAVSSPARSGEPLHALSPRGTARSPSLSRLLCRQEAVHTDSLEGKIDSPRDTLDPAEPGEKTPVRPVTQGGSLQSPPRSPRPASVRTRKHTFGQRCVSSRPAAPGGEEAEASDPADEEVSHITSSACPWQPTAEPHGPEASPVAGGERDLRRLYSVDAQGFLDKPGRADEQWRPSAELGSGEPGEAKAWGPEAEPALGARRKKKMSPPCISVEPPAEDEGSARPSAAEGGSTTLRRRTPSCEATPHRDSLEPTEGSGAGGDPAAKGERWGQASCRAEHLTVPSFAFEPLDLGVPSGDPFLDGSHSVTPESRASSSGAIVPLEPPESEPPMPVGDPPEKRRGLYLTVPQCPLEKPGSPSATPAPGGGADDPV
Chain of Procathepsin L (P07711 whole entry): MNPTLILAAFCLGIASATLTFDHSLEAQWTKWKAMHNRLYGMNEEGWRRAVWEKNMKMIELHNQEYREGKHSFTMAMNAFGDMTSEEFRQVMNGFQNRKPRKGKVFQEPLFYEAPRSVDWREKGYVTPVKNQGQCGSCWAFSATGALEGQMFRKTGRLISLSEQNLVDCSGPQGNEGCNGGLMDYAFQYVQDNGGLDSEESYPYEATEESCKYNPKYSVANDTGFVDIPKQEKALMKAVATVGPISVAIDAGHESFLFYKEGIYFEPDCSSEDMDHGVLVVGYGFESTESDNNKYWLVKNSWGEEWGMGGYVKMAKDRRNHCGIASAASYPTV
Chain of DNA dC->dU-editing enzyme APOBEC-3G (Q9HC16 whole entry): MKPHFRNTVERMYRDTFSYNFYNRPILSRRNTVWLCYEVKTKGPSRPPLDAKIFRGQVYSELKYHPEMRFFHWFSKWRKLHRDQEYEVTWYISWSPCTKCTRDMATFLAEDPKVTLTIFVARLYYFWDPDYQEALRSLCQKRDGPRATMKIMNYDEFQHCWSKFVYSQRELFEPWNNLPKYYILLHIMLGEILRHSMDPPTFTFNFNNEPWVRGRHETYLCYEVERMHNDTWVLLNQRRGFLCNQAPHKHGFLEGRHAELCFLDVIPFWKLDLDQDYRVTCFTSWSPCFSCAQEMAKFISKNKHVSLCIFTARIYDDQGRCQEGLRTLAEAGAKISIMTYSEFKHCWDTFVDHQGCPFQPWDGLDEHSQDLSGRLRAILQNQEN
Chain of Photoreceptor-specific nuclear receptor (Q9Y5X4 whole entry): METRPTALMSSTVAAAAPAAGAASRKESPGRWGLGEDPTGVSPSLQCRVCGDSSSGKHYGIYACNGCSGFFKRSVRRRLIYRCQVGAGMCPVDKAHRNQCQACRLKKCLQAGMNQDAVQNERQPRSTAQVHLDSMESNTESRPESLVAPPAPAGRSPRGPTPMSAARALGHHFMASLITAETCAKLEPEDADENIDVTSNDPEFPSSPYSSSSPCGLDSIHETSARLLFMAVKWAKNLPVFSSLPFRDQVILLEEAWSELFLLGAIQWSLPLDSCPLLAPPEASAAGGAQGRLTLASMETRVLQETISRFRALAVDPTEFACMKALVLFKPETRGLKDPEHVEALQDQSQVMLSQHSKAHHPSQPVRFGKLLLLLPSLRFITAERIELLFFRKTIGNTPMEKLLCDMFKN
Chain of Beta Lactamase (Q932Y6 whole entry): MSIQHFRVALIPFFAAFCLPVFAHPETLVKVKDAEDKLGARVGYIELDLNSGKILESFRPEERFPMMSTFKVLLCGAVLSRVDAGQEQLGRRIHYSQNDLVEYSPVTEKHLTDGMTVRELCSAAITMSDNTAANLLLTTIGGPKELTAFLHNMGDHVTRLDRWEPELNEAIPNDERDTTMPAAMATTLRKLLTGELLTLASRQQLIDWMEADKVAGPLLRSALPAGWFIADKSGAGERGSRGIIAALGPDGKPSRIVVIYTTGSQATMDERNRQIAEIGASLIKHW
Chain of G-protein coupled receptor 55 (Q9Y2T6 whole entry): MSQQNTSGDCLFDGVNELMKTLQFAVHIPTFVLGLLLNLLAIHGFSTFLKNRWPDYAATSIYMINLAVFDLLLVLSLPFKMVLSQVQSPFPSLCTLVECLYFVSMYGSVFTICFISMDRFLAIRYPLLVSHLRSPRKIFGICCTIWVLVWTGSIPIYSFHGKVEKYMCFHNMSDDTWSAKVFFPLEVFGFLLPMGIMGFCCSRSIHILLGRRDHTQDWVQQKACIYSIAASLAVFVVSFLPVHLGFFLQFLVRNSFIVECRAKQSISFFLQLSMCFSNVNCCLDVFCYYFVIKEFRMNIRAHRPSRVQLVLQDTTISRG
Chain of Phosphoethanolamine/phosphocholine phosphatase (Q8TCT1 whole entry): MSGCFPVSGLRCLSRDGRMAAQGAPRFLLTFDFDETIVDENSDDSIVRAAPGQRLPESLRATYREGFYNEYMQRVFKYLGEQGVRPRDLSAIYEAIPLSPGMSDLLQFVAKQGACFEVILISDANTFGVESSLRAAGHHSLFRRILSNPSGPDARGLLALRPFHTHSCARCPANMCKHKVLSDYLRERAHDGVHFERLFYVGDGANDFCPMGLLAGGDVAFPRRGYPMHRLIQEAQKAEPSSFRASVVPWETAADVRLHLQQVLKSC

Structure (SMILES): CC1=NNC(=O)/C1=C\c1cn(-c2ccccc2)nc1-c1ccc(F)cc1
- IC50 [1]: 0.71 µM (active)
- IC50 [2]: > 59.6 µM (not active)
- AC50 [3]: 6.52 µM (active)
- AC50 [4]: 3.69 µM (active)
- EC50 [5]: 1.35 µM (active)

Structure (SMILES): COc1cc(C(=O)Nc2ccc3c(c2)OCCO3)ccc1OC(C)C
- EC50 [6]: > 50 µM (active)

Structure (SMILES): O=C1c2ccccc2C(=O)N1Cc1ccc2c(c1)OCO2
- AC50 [7]: 42.5 µM (active)

Structure (SMILES): CCOc1ccccc1NC(=O)CSc1nc(N)c(C#N)cc1C#N
- IC50 [8]: > 39.8 µM (not active)
- IC50 [9]: 3.03 µM (active)

Structure (SMILES): CCCCCC(=O)NC(=S)NNC(=O)CC
- EC50 [6]: > 50 µM (active)

Structure (SMILES): CC(C)(C)OC(=O)CN1C(=O)S/C(=C\c2ccc(-c3cccc(C(=O)O)c3)o2)C1=O
- EC50 [10]: 4.23 µM (active)

Structure (SMILES): COc1ccc(-n2sc3ccc(F)cc3c2=O)cc1
- IC50 [11]: 6.67 µM (inactive)
- IC50 [12]: 10.8 µM (active)
- IC50 [13]: > 100 µM (inactive)
- IC50 [14]: 5.42 µM (active)
- IC50 [15]: 19.9 µM (inactive)
- CC50 [16]: 100 µM (active)
- IC50 [17]: 45.2 µM (active)
- AC50 [18]: 6.6 µM (active)
- AC50 [19]: 5.92 µM (active)

Structure (SMILES): O=C(Nc1ccc(S(=O)(=O)N2CCc3ccccc3C2)cc1)C1CCCO1 (stereo not drawn)
- EC50 [20]: 3.27 µM (active)

Structure (SMILES): CN(Cc1ccccc1)C(=O)CCSc1nc(-c2ccc3c(c2)OCO3)cc(C(F)(F)F)n1
- EC50 [20]: 4.53 µM (active)
- IC50 [21]: > 20 µM (inactive)
